According to patent US20070197625A1, “Azabicyclic compounds, a process for their preparation and pharmaceutical compositions containing them” (Les Laboratoraties Servier, priority 2004, published 2007):

Target: T1, type H3 central histaminergic receptors (Mus musculus, UniProt P58406)
T1 construct: from tissue; host or cells: brain of living NMRI mice
Experiment: Cerebral doses of N^t-methylhistamine in the NMRI mouse (ex vivo, after oral administration)
Conditions: NMRI mice, brain two hours after treatment, vs carrier control
Experimental: The aim of this study, carried out according to the method of Taylor et al. (Biochem. Pharm., 1992, 44, 1261-1267), is to evaluate the ex vivo activity of the compounds of the present invention as type H3 central histaminergic receptor antagonists. […] An increase in the cerebral concentrations of N^t-methylhistamine signifies an increase in histamine turnover by blockade of the type H3 central histaminergic receptors.
NMRI mice (18-20 g) are treated via oral administration with the compounds of the present invention or with their carrier (20 ml/kg). Two hours after the pharmacological treatment, the animals are sacrificed, the brains are removed, frozen in liquid nitrogen, weighed and homogenised in 0.1N HClO4 at 4° C. The homogenates are centrifuged (15000 g, 17 min, 4° C.). The supernatants are recovered and divided into aliquots. The aliquots are frozen in liquid nitrogen and stored at −80° C. until their analysis.
Determination of the cerebral levels of N^t-methylhistamine is effected by capillary electrophoresis coupled with detection by laser-induced fluorescence (J. Chromatogr. A., 1996, 755, 99-115). The tissue levels of N^t-methylhistamine are expressed in ng/g of fresh brain. Comparison between the cerebral levels of N^t-methylhistamine of the animals treated with the carrier (control) and the animals treated with the compounds of the present invention (n=5/group) is effected by single factor variance analysis followed, if necessary, by a supplementary analysis (Dunnett's test).

T1 sequence (P58406 whole entry): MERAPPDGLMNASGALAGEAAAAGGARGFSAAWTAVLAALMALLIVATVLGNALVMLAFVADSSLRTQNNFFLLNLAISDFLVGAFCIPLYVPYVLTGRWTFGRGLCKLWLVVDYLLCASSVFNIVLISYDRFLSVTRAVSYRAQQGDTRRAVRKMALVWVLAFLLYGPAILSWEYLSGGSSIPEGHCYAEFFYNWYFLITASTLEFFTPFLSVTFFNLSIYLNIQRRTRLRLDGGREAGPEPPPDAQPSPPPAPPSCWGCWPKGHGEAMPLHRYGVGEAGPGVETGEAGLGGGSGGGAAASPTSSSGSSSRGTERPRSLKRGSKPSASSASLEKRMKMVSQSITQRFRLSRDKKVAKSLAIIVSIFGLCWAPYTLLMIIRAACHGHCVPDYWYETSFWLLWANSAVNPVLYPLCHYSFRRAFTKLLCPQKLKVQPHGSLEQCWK

## N#Cc1ccc(OCCCN2CC3CCCC3C2)cc1.O=C(O)C(=O)O (centres unmarked) [Example 1, 4-(3-Hexahydrocyclopenta[c]pyrrol-2(1H)-ylpropoxy)benzonitrile oxalate]
10 mg/kg p.o.
  increase of the endogenous cerebral concentrations of N^t-methylhistamine: 92%

## CC(=O)Nc1ccc(OCCCN2CC3CCCC3C2)cc1.O=C(O)C(=O)O (centres unmarked) [Example 4, N-[4-(3-Hexahydrocyclopenta[c]pyrrol-2(1H)-ylpropoxy)-phenyl]acetamide oxalate]
3 mg/kg p.o.
  increase of the endogenous cerebral concentrations of N^t-methylhistamine: 52%

## NC(=O)c1ccc(OCCCN2CC3CCCC3C2)cc1.O=C(O)C(=O)O (centres unmarked) [Example 22, 4-(3-Hexahydrocyclopenta[c]pyrrol-2(1H)-ylpropoxy)benzamide oxalate]
3 mg/kg p.o.
  increase of the endogenous cerebral concentrations of N^t-methylhistamine: 33%
10 mg/kg p.o.
  increase of the endogenous cerebral concentrations of N^t-methylhistamine: 85%

## CNC(=O)c1ccc(OCCCN2CC3CCCC3C2)cc1 (centres unmarked) [Example 93, 4-[3-(Hexahydrocyclopenta[c]pyrrol-2(1H)-yl)propoxy]-N-methylbenzamide]
3 mg/kg p.o.
  increase of the endogenous cerebral concentrations of N^t-methylhistamine: 90%
